One compound from patent publication US20160129021A1, “STERILIZATION METHOD” (UNIVERSITY OF PITTSBURGH - OF THE COMMONWEALTH SYSTEM OF …, priority 2013, published 2016) can be followed below.

Data set [1] deals with GS cells. Put plainly: GS cell number after isolation from feeder cells, dispersed and counted. In kind it is cell-based, mouse. The settings on record: 50 μM, 5 day treatment, vs vehicle. As to the method: (§1) FIG. 7A-F. Inhibition of SHP2 blocks GDNF and FGF signaling causes SSCs to detach from their niche decreases the number of SSCs in culture and disrupts spermatogenesis in vivo. […] Western blot analysis of p-ERK and ERK levels after the treatments is shown. […] The percentage of cells detached from feeder cells was determined (n=3, *=p<0.05). C) The epididymis of control and GCSHP2KO mice were stained with periodic acid Schiffs-hematoxylin. Immature germ cells in GCSHP2KO epididymis are identified with arrows. D) GS cells treated with vehicle or NSC (50 μM) as in B were isolated from feeder cells, dispersed and counted. E) Clumps of GS cells (white arrows) and feeder cells (yellow arrows) treated as in D were assayed for live (green) and dead (red) cells.
All immunostained cells and tubules from an entire testis section were counted and the number of stained cells per tubule was determined. GS cell viability was determined using the LIVE/DEAD Viability Assay kit for mammalian cells (Life Technologies)
Preparation of GS cell cultures from 6-day-old DBA/2 mice was performed as described previously (Oatley and Brinster, 2006). Briefly, a testicular cell suspension was isolated by enzymatic digestion with DNase and trypsin and filtered through a 40 uM mesh to remove cell clumps. Germ cells were then enriched from these suspensions through a 30% percoll gradient. […]

Data set [2] concerns FGF and GDNF-mediated phosphorylation of ERK. The data set is described as follows: FGF/GDNF-stimulated ERK phosphorylation in GS cell cultures (western blot). The format is cell-based, mouse. The settings on record: FGF 20 ng/ml or GDNF 20 ng/ml, pretreatment with 50 μM. On the procedure:
as §1
Isolation of THY1+ germ cells from 6-day-old DBA/2 mice was performed as described previously to produce GS cell cultures (Oatley and Brinster, 2006) (more details in Supplemental Experimental Procedures). […] SSCs were detached from feeders and FGF or GDNF were added for 10 min. Detached SSCs were then pelleted (600×g, 7 min) and the pellets were lysed in Laemmli sample buffer.
WCE boiled in Laemmli sample buffer were fractionated by 10% SDS-PAGE and transferred to Immobilon-P, PVDF membranes 90 (Millipore Corp., Bedford, Mass.). […]
(In general: A western blot detects proteins with antibodies after separation by electrophoresis.)

In a further data set the test system is spleen tissue. The data set is described as follows: Spleen tissue after injection into testes. In kind it is in vivo, mouse. The settings on record: same animal as FIG. 11 (10 mg/kg into testes), 15 days after injection.
The test system of data set [3] is spermatogenesis in adult mice. The data set is described as follows: ip injection into adult mice, testis sections stained with PAS-H. The format is in vivo, mouse. The settings on record: 15 days later. As to the method: as §1, with “cells. […] Furthermore, the populations of spermatocytes and spermatids were reduced.” for “cells.”
In data set [4] the test system is spermatogenesis in testes of adult mice. The data set is described as follows: One injection into the testes of adult mice, sperm production. The format is in vivo, mouse.
Data set [5] deals with GS cells. Put plainly: Detachment of GS cells from feeder cells. In kind it is cell-based, mouse. The following applies: 50 μM, 5 days, vs vehicle. As to the method: as §1
Preparation of GS cell cultures from 6-day-old DBA/2 mice was performed as described previously (Oatley and Brinster, 2006). Briefly, a testicular cell suspension was isolated by enzymatic digestion with DNase and trypsin and filtered through a 40 uM mesh to remove cell clumps. Germ cells were then enriched from these suspensions through a 30% percoll gradient. The germ cell suspensions were subjected to magnetic activated cell sorting (MACS) to select Thy1+ cells to enrich for SSCs. […]

The mark [6] stands for this setting: 5 mg/kg ip daily for 3 or 7 days.

For the compound `O=S(=O)(O)c1ccc2cc(/N=N/c3cc(S(=O)(=O)O)c4cccnc4c3O)ccc2c1` [NSC-87877, 8-Hydroxy-7-[(6-sulfo-2-naphthyl)azo]-5-quinolinesulfonic acid], the “reduction of the number of GS cells” value in the data set with GS cells [1] was 22%. Besides, in data set [2], the “FGF and GDNF-mediated phosphorylation (activation) of ERK” value is “decreased FGF and GDNF mediated activation of ERK”. Further, the “FGF and GDNF-mediated phosphorylation (activation) of ERK” value in data set [2] (listed as NSC-878777) was “inhibited the FGF and GDNF-mediated phosphorylation of ERK”. In addition, in the data set with spleen tissue, the “damage of spleen tissue” value is reported as “not damaged”. In data set [3] (setting [6]), the “further disruption of spermatogenesis (elongated spermatids)” value was “mis-localization and mis-orientation of elongated spermatids”; the “populations of spermatocytes and spermatids” value is listed as “reduced”; the “spermatogonia in tubules at the periphery of the testes” value is on record as “absence of spermatogonia”. For the same compound, the “germ cells in some tubule cross sections” value in data set [3] (5 mg/kg ip daily for 7 days) is listed as “nearly all germ cells were absent”. In addition, the “sperm production, long term” value in data set [4] (one injection of 10 mg/kg into the testes, adult mice, 70 days) is recorded as “loss of sperm production in some regions of the testes”. In data set [4] (one injection of 40 mg/kg into the testes, adult mice, 15 days later), the “spermatogenesis (sperm production)” value is “sufficient to disrupt spermatogenesis”. Also, in data set [4] (single dose of 10 mg/kg or 40 mg/kg, mouse), the fertility result is given as “effective in decreasing fertility”. For the same compound, the “increase in the number of GS cells detached from the feeder cells” value in the data set on GS cells [5] is given as 3 fold.
